Results reported in the NIST ThermoML archive (doi:10.1021/je1009619).

Assays:
[1] = Liquid, Vibrating tube method
[2] = xn = mol fraction of the nth substance listed; conditions: Liquid, Vibrating tube method, x1 = 1

C=C(C)[C@H]1CC=C(C)CC1 [(R)-1-methyl-4-(1-methylethenyl)cyclohexene]
mass density [kg/m3], [1]
Conditions | 283.15 K | 298.15 K | 313.15 K | 328.15 K | 343.15 K | 358.15 K
20000 kPa | 862 | 851.5 | 841 | 830.5 | 820.1 | 810.2
25000 kPa | 864.9 | 854.5 | 844.2 | 833.8 | 823.7 | 813.9
30000 kPa | 867.7 | 857.6 | 847.2 | 837.2 | 827.3 | 817.6
35000 kPa | 870.4 | 860.9 | 850.3 | 840.4 | 831.1 | 821.3
40000 kPa | 873.3 | 863.4 | 853.3 | 843.8 | 834.6 | 824.8

CC1=CC[C@H]2C[C@@H]1C2(C)C [(S)-2-pinene]
mass density [kg/m3], [1]
Conditions | 283.15 K | 298.15 K | 313.15 K | 328.15 K | 343.15 K | 358.15 K
20000 kPa | 880 | 868.8 | 858 | 846.7 | 835.9 | 825
25000 kPa | 883.2 | 872.1 | 861.3 | 850.4 | 839.7 | 829.2
30000 kPa | 886.3 | 875.3 | 864.7 | 854 | 843.8 | 833.3
35000 kPa | 889.4 | 878.6 | 867.9 | 857.5 | 847.7 | 837.4
40000 kPa | 892.5 | 881.9 | 871.3 | 861.1 | 851.4 | 841.5

C=C(C)[C@H]1CC=C(C)CC1 [(R)-1-methyl-4-(1-methylethenyl)cyclohexene] + CC1=CC[C@H]2C[C@@H]1C2(C)C
mass density [kg/m3], [2]
Conditions | 283.15 K | 298.15 K | 313.15 K | 328.15 K | 343.15 K | 358.15 K
20000 kPa | 862 | 851.5 | 841 | 830.5 | 820.1 | 810.2
25000 kPa | 864.9 | 854.5 | 844.2 | 833.8 | 823.7 | 813.9
30000 kPa | 867.7 | 857.6 | 847.2 | 837.2 | 827.3 | 817.6
35000 kPa | 870.4 | 860.9 | 850.3 | 840.4 | 831.1 | 821.3
40000 kPa | 873.3 | 863.4 | 853.3 | 843.8 | 834.6 | 824.8
